This is an account of results in patent publication US5246966A, “Substituted alkenoic acid and its derivatives” (Bayer Aktiengesellschaft, priority 1991, dated 1993).

The experiment addresses T1, LTD4 receptor ([3H-LTD4] binding to guinea-pig lung membranes) (Cavia porcellus, UniProt Q2NNR5).
T1 construct: guinea-pig lung membranes; from tissue; host or cells: guinea-pig lung membranes
T1 sequence (Q2NNR5 1-340): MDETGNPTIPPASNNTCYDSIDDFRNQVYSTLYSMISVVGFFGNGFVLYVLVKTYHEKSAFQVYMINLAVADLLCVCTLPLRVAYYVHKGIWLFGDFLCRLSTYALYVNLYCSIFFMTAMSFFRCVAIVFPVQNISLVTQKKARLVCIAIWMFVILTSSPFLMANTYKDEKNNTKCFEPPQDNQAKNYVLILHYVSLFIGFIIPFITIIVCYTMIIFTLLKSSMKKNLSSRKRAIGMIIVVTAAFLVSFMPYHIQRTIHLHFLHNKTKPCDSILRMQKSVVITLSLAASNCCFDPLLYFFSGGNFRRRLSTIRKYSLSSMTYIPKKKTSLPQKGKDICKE
Description: [3H]-LTD4 binding assay. As to conditions: displacement of 0.8 nM 3H-LTD4 from guinea-pig lung membranes, 15 minutes at 20° C., pH 7.4; Cheng and Prusoff correction of IC50; read-out: pKi [3H-LTD4] (converted). The protocol: To evaluate the pharmacological properties the receptor affinity of the compounds were determined by measuring its ability to displace [^3 H-LTD4 ] binding to guinea-pig lung membranes.
Test method: [^3 H]-LTD4 BINDING ASSAY
Increasing concentrations (between 10^-8 and 10^-5 M) of compounds of general formula I were incubated with 0.8 nM^3 H-LTD4 and guinea-pig lung membranes (100-150 μg protein) for 15 minutes at 20° C. in an assay buffer of 10 mM L-cysteine and 1% polypep in 50 mM Tris HCl at pH 7.4. Incubations (total volume 0.25 ml) were terminated by addition of ice-cold Tris HCl (pH 7.4) and rapidly filtered through Whatman GF/C filters which were washed twice with ice-cold buffer. All points were determined in triplicate.
The counts (dpm) bound to each filter were determined by liquid scintillation spectrometry. The amount bound in the presence of each concentration of test compound was compared to the amount of binding in the absence of test compound […] and to the amount bound in the presence of 2 μm LTD4. […]
Where 0.8 nM is the dissociation constant for ^3 H-LTD4 under these conditions and [^3 H-LTD4 ] is the precise concentration (in nM) employed in the assay (also determined by liquid scintillation counting).

`O=C(O)CC[C@@H](/C=C\Cc1ccc(OCCCCOc2ccccc2)cc1)Sc1ccc(C(=O)O)cc1` [Example No. 4, Z-[4S]-4-(4-Carboxyphenylthio)-7-[4-(4-phenoxybutoxy)-phenyl]-5-heptenoic acid]: the Ki is 31.6 nM.
